Data reported in PMC2922960 (Bioorganic & medicinal chemistry letters, 2009).

Legend:
[1] = biological target: FTase (Homo sapiens, UniProt P49354+P49356); experiment: steady-state kinetic assay; assay type: biochemical, mammalian; settings: saturating FPP (10 μM), 0.2-10 μM dansylated peptide, 20-100 nM FTase, 50 mM HEPPSO pH 7.8, 5 mM TCEP, 5 mM MgCl2, 25 °C; fluorescence λex 340 nm, λem 520 nm
[2] = biological target: T1, recombinant mammalian FTase (Homo sapiens, UniProt P49354+P49356); experiment: HPLC analysis of farnesylated peptide product formation; assay type: biochemical; settings: 3 μM peptide, 9 μM FPP, 0.05 μM FTase; for HPLC: formation of farnesylated peptide product: after 60 min incubation with FTase
[3] = biological target: T1, recombinant mammalian FTase; experiment: continuous spectrofluorimetric assay of FTase substrate activity; assay type: biochemical; settings: from fluorescence screen and HPLC confirmation
[4] = test system: FTase; settings: cited from earlier work

Substance | HPLC: formation of farnesylated peptide product [2] | also measured
CAIL | +++ | kcat/KM [1]: 27000 ± 2000 M⁻¹ s⁻¹
CALL | + (25% to 50% conversion to product) | 
CAYL | − − | 
CCLL | + (25% to 50% conversion to product) | 
CCSL | − − | 
CCVL | +++ | kcat/KM [1]: 7000 ± 1000 M⁻¹ s⁻¹
CEKL | − − | 
CGCL | − − | 
CGGL | − − | 
CGQL | − − | 
CHAL | − − | 
CHPL | − − | 
CIIL | +++ | kcat/KM [1]: 43000 ± 8000 M⁻¹ s⁻¹
CILL | ++ | kcat/KM [1]: 8000 ± 2000 M⁻¹ s⁻¹
CKVL | + (25% to 50% conversion to product) | FTase substrate ability (category in words) [3]: relatively modest FTase substrates
CLGL | − − | 
CLIL | ++ | FTase substrate ability (category in words) [3]: confirmed substrates
CLLL | + (25% to 50% conversion to product) | FTase substrate ability (category in words) [3]: poor FTase substrate
CLQL | − (less than 25% conversion) | 
CLVL | + (25% to 50% conversion to product) | 
CMEL | − − | 
CNIL | ++ | kcat/KM [1]: 12000 ± 900 M⁻¹ s⁻¹

Substance | HPLC: formation of farnesylated peptide product [2] | also measured
CNPL | − − | 
CPIL | + (25% to 50% conversion to product) | FTase substrate ability (category in words) [3]: confirmed substrates
CQLL | − (less than 25% conversion) | 
CQNL | − − | 
CRLL | + (25% to 50% conversion to product) | 
CSFL | − − | 
CSIL | +++ | kcat/KM [1]: 5000 ± 1000 M⁻¹ s⁻¹
CSLL | − (less than 25% conversion) | 
CSQL | − − | 
CSTL | − − | 
CSVL | + (25% to 50% conversion to product) | 
CTAL | − − | 
CTIL | ++ | kcat/KM [1]: 33000 ± 7000 M⁻¹ s⁻¹
CTLL | + (25% to 50% conversion to product) | 
CVGL | − − | 
CVLL | + (25% to 50% conversion to product) | FTase substrate ability (category in words) [3]: relatively modest FTase substrates
DnGCCIL | +++ | kcat/KM [1]: 23000 ± 3000 M⁻¹ s⁻¹; FTase substrate ability (category in words) [3]: efficient FTase substrate
DnGCLML | ++ | kcat/KM [1]: 8100 ± 500 M⁻¹ s⁻¹; FTase substrate ability (category in words) [3]: good FTase substrate
DnGCVIL | +++ | kcat/KM [1]: 47000 ± 8000 M⁻¹ s⁻¹
DnGCVLS [reference compound] |  | turnover to farnesylated product ([2]; after 15 minutes): complete turnover
DnTKCVIL |  | FTase substrate activity under single turnover conditions ([4]; single turnover conditions): FTase substrate; FTase turnover under steady-state conditions ([4]; steady-state conditions): did not exhibit efficient turnover
